Measured values taken from US6254889A, “Solid dispersion dosage form of amorphous xanthine derivative and enteric-coating polymer” (Kyowa Hakko Kogyo Co., Ltd., priority 1995, dated 2001).

Experiment: Comparative absorbability test, oral administration to beagles (pharmacokinetics)
Assay type: in vivo
Conditions: male beagle, oral with 20 ml water, 0-24 h, in terms of 3 mg/kg (doses given: Examples 6-8 3 mg/kg, crystal 6 mg/kg, Comparative Example 1 4 mg/kg)

The Area under the Plasma Concentration Curve, Intact Drug (in terms of 3 mg/kg): 69.9 ± 2.6 ng·h/mL
SMILES: CCCn1c(=O)c2[nH]c(C34CC5CC(CC3C5)C4)nc2n(CCC)c1=O [Compound No. 1]
